# Experimental data from patent publication US20080096858A1, “Method of Stabilizing Disordered Cefovecin Sodium Salt” (UNIVERSITY OF CONNECTICUT, priority 2004, published 2008).
# Tests used:
# [1] = Storage stability at 40° C. of cefovecin sodium salt annealed at 75° C., monitored by RP-HPLC (Example 1); settings: for relative rate constant k/k0 / degradation rate constant k: storage at 40° C.; for degradation rate constant k: zero-order model, SD in ( )
# Method: Cefovecin sodium salt was dissolved in WFI at a concentration of 200 mg cefovecin sodium salt/ml. This solution was filtered using 0.22μ sterilized filters. 4.25 ml of this solution was volumetrically filled in the laminar flow hood into a 20-ml Flint Type I Tubular Treated Vials. 20 mm Lyophile D777-1, B2TR FluoroTec Single Vent Stoppers were partially inserted in the vials. The vials were lyophilized using Vertis freeze dryer (Gardiner, N.Y.) using the following cycle: frozen at −40° C. followed by vacuum drying at the shelf temperature of −18° C. for approximately 42 hours, and 60 millitore vacuum; secondary dried at a temperature of 40° C. for approximately 12 hours and 60 millitore vacuum. The lyophilizer chamber was back flushed with nitrogen and the vials were capped and sealed with aluminum shells.
# Amorphous lyophilized cefovecin sodium salt was annealed in sealed vials at 75° C. for 20 and 60 min. The sealed vials with untreated cefovecin sodium salt (control), and vials with annealed cefovecin sodium salt were stored at 40° C. at ambient humidity for 6 and 12 weeks.
# (§1) Reverse Phase High Performance Liquid Chromatography (RP-HPLC) was used to monitor degradation of cefovecin sodium salt. HPLC was carried out with a Waters Alliance (Milford, Mass.) system with a UV detector set at 256 nm and a Kromasil C4 column 4.6×250 mm, 5 μm, 100 angstrom pore size (Waters, Milford, Mass.). Column temperature was 30±2° C. and the samples were maintained in the auto sampler at 5±3° C. and the flow rate was 1 mL/min. Gradient method was used with mobile phase A consisting of (9:1) 0.025M sodium phosphate buffer solution, pH 6.5: acetonitrile in HPLC grade water, and mobile phase B consisting of (4:6) 0.025M sodium phosphate buffer solution, pH 6.5: acetonitrile in HPLC grade water.
# (§2) The lyophilized cake was dissolved in WFI, and the solution was injected into the HPLC column. Contents of cefovecin sodium salt and a main degradant with relative retention time of approximately 1.6 were calculated as Ac/ΣAi, where Ac is the peak area of either cefovecin sodium salt or the degradant, and ΣAi is a total area of all chromatographic peaks. […] Stability data obtained for two annealed samples and the control sample are graphically illustrated in FIG. 1.
# In addition, relative rate constants, k/k0 (where k0 is the rate constant of the control) were calculated in relation to control. The k/k0 are plotted in FIG. 2 as a function of annealing time at 75° C.
# [2] = Storage stability at 40° C. for 6 months of cefovecin sodium salt annealed at 60° C., monitored by RP-HPLC (Example 2)
# Method: as §1, §2
# Amorphous lyophilized cefovecin sodium salt was annealed in sealed vials at 60° C. for 300 min in a contract lab, UCONN, Storrs, Conn. Untreated samples (control), and annealed samples were placed on stability at 40° C. for 6 months. Reverse Phase High Performance Liquid Chromatography was used to monitor degradation as described in Example 1.
# [3] = HPLC purity of thermally treated freeze-dried cefovecin sodium salt (Example 3, Table 3)
# Method: as §1, §2
# A freeze-dried formulation that contains cefovecin sodium salt was prepared as follows. Cefovecin sodium salt was dissolved in citrate buffer at pH 6.7. […] The solution contained 200 mg/ml of cefovecin sodium salt, 50 mM citrate buffer, 4.5 mg/ml methylparaben, and 0.5 mg/ml propylparaben. The solution was filled in 20 ml glass vials, 4.25 ml/vial. The vials were partially stoppered with single-vent D777-1 and loaded into a freeze-drier (Hull 450 FXS800S, Warminster, Pa.). The solution was frozen at −40° C. followed by primary drying at the shelf temperature of −10° C. and approximately 200 millitore vacuum; after the product temperature approached −12° C., secondary drying was performed at shelf temperature 40° C. for approximately 12 hours and 200 millitore vacuum. Lyophilized cefovecin sodium salt was prepared in a contract facility, SmithKline Beecham Corporation, Conshocken, Pa. […] The lyophilized samples were annealed in sealed vials at 160° C. for 120 min and 170° C./45 min. The untreated samples (control), and annealed samples were tested by HPLC; HPLC conditions are described in Example 1.
# [4] = Physical form (crystallization) during thermal treatment; assay type: physicochemical; settings: thermal treatment according to the invention; material remained amorphous
# [5] = annealed at 60° C.; stability study at 25 and 40° C.; cited from earlier work
# [6] = after storage 12 weeks at 40° C., ambient humidity, annealed at 75° C.
# [7] = 0 min annealing at 75° C. (control)
# [8] = after storage 6 months at 40° C., annealed at 60° C.
compound,measurement,setting,value
CO/N=C(\C(=O)N[C@@H]1C(=O)N2C(C(=O)[O-])=C([C@@H]3CCCO3)CS[C@H]12)c1csc(N)n1.[Na+] [cefovecin sodium salt],dimer level of annealed samples compared with control,[1]; [6],lower
same,overall purity of annealed samples compared with control,[1]; [6],higher
same,degradation caused by annealing (initial time points),"[1]; annealing 20 and 60 min at 75° C., lower purity, higher dimer",some degradation
same,effect of annealing on stability,[1]; annealing at 75° C.,increased the stability
same,relative rate constant k/k0,[1]; [7],1.00
same,degradation rate constant k,[1]; [7],−0.12 (0.01) %/week
same,relative rate constant k/k0,[1]; annealed 20 min at 75° C.,0.82
same,degradation rate constant k,[1]; annealed 20 min at 75° C.,−0.095 (0.006) %/week
same,relative rate constant k/k0,[1]; annealed 60 min at 75° C.,0.71
same,degradation rate constant k,[1]; annealed 60 min at 75° C.,−0.082 (0.005) %/week
same,dimer level of annealed sample compared with control,[2]; [8],lower
same,purity of annealed sample compared with control,[2]; [8],higher
same,purity (cefovecin sodium salt),"[2]; annealed 60° C. 300 min, 0 months at 40° C.",98.11 area %
same,purity (cefovecin sodium salt),"[2]; annealed 60° C. 300 min, 6 months at 40° C.",96.49 area %
same,effect of annealing on stability,[2]; annealing at 60° C.,increased the stability
same,purity (cefovecin sodium salt),"[2]; control (not annealed), 0 months at 40° C.",98.35 area %
same,purity (cefovecin sodium salt),"[2]; control (not annealed), 6 months at 40° C.",96.35 area %
same,Purity,[3]; after annealing 60° C./300 min (Example 2),98.1 area %
same,Purity,[3]; after annealing 75° C./20 min (Example 1),97.5 area %
same,Purity,[3]; after annealing 75° C./60 min (Example 1),97.5 area %
same,Purity,"[3]; after annealing 160° C./120 minutes, freeze-dried formulation with citrate buffer, methylparaben, propylparaben (Example 3)",69.8 area %
same,Purity,"[3]; after annealing 170° C./45 minutes, freeze-dried formulation with citrate buffer, methylparaben, propylparaben (Example 3)",70.3 area %
same,degradation caused by annealing,[3]; annealing at 160° C. and 170° C.,unacceptable levels of degradation
same,degradation caused by thermal treatment compared with examples 1 and 2,[3]; treatment at both 160° C. and 170° C.,significant degradation
same,crystallization during thermal treatment,[4],did not occur
"CO[C@@]1(NC(=O)C(C(=O)[O-])c2ccc(O)cc2)C(=O)N2C(C(=O)[O-])=C(CSc3nnnn3C)COC21.[Na+].[Na+] (some centres unmarked) [moxalactam, moxalactam (di-sodium salt)]",rate of decarboxylation of annealed sample compared with control,[5],lower
